Bridge positions count the residues as written; N and C are the ends. Square brackets hold non-standard residues; d marks the D form. Peptide text beside a SMILES is read from it. * marks the point of attachment. Ala(imidazo(1,2-a)pyr3yl) = N[C@@H](Cc1cnc2ccccn12)C(=O)O; Trp(1-CH2COOH) = N[C@@H](Cc1cn(CC(=O)O)c2ccccc12)C(=O)O; NMePhe(4-COOH) = CN[C@@H](Cc1ccc(C(=O)O)cc1)C(=O)O; Nle(6-morpholino) = N[C@@H](CCCCN1CCOCC1)C(=O)O; Phe(3-COOH) = N[C@@H](Cc1cccc(C(=O)O)c1)C(=O)O; NMePhe(3-Cl) = CN[C@@H](Cc1cccc(Cl)c1)C(=O)O; 3Pal(6-OMe) = COc1ccc(C[C@H](N)C(=O)O)cn1; 3Pal(6-NH2) = Nc1ccc(C[C@H](N)C(=O)O)cn1; Tyr(3-Me) = Cc1cc(C[C@H](N)C(=O)O)ccc1O; NMeY = CN[C@@H](Cc1ccc(O)cc1)C(=O)O; Nva(3-Et) = CCC(CC)[C@H](N)C(=O)O; NH(CH2CH2O)4Me = COCCOCCOCCOCCN*; hArg = N=C(N)NCCCC[C@H](N)C(=O)O; 4Pal = N[C@@H](Cc1ccncc1)C(=O)O; PEG4 = NCCOCCOCCOCCOCCC(=O)O; Carboxymethyl = O=C(O)C*
Key:
Assay type in all cases: binding
[1] = biological target: T1, human transferrin receptor (hTfR) (Homo sapiens, UniProt P02786); experiment: SPR measurement under pH 6.0 conditions (Biacore T200, NTA chip, immobilized hTfR); conditions: SPR, pH 6.0; read-out: hTfR SPR pH6.0 KD
[2] = biological target: T1, human transferrin receptor (hTfR); experiment: Evaluation of pH dependence (ratio of SPR koff or KD at pH 6.0 to pH 7.4); conditions: ratio of koff at pH 6.0 to pH 7.4
Method: The ratio of the calculated koff or KD values under pH 6.0 conditions to those under pH 7.4 conditions was calculated to check pH dependency.

[3] = biological target: T1, human transferrin receptor (hTfR); experiment: SPR measurement under pH 7.4 conditions (Biacore T200, CM3 chip, hTfR captured by His Tag antibody); conditions: SPR, pH 7.4; read-out: hTfR SPR pH7.4 KD

T1 sequence (P02786 whole entry): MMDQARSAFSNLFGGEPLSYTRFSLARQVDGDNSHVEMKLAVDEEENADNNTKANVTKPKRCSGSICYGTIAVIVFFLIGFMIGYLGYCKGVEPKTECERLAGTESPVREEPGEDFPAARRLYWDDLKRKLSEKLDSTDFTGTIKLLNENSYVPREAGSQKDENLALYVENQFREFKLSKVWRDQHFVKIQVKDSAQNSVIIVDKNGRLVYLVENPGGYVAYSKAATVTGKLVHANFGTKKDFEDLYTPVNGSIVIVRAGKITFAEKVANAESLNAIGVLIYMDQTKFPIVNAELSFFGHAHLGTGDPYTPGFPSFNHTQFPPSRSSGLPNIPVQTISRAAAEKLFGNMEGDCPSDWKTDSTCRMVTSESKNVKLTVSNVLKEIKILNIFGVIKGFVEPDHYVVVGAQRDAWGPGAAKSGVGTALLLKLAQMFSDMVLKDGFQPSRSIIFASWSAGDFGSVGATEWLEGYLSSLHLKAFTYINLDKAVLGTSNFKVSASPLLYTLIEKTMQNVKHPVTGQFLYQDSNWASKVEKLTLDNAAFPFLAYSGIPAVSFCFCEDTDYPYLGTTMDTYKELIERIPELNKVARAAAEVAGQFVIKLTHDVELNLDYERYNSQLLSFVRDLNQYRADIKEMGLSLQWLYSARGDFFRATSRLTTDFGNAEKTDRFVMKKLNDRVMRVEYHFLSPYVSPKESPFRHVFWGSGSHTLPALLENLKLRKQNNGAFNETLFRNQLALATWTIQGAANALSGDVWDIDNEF

Compound | Kd [1] [µM] | dependency koff pH6.0/7.4 [2] | Kd [3] [µM]
CC[C@H](C)[C@@H]1NC(=O)[C@H](Cc2ccc(OCC(=O)O)cc2)NC(=O)[C@H](Cc2ccc(O)cc2)NC(=O)[C@H](CC(N)=O)NC(=O)[C@H](Cc2cn(CC(=O)O)c3ccccc23)NC(=O)[C@H](C(C)C)NC(=O)[C@H](Cc2cccc(Cl)c2)N(C)C(=O)[C@H](C(C)C)NC(=O)[C@H](C)NC(=O)CSC[C@@H](C(=O)NCCOCCOCCOCCOCCC(N)=O)NC(=O)[C@H](Cc2ccc(O)cc2)N(C)C(=O)[C@H](Cc2ccncc2)NC(=O)[C@H](CCCCN2CCOCC2)NC(=O)[C@H](CCCCN2CCOCC2)NC(=O)[C@H]([C@@H](C)CC)NC1=O [compound 69] ({CH2CO}-AV[NMePhe(3-Cl)]V[Trp(1-CH2COOH)]NYY(Carboxymethyl)II[Nle(6-morpholino)][Nle(6-morpholino)][4Pal][NMeY]C[PEG4]-NH2; thioether N-15) | 0.0335 | 9.63 | 0.00857
CC[C@H](C)[C@@H]1NC(=O)[C@H](Cc2ccc(OCC(=O)O)cc2)NC(=O)[C@H](Cc2ccc(O)cc2)NC(=O)[C@H](CC(N)=O)NC(=O)[C@H](Cc2cn(CC(=O)O)c3ccccc23)NC(=O)[C@H](C(C)C)NC(=O)[C@H](Cc2cccc(Cl)c2)N(C)C(=O)[C@H](C(C)C)NC(=O)[C@H](C)NC(=O)CSC[C@@H](C(=O)NCCOCCOCCOCCOCCC(N)=O)NC(=O)[C@H](Cc2ccc(O)cc2)N(C)C(=O)[C@H](Cc2cccc(C(=O)O)c2)NC(=O)[C@H](CCCNC(=N)N)NC(=O)[C@H](CCC(N)=O)NC(=O)[C@H](CCCCNC(=N)N)NC1=O [compound 71] ({CH2CO}-AV[NMePhe(3-Cl)]V[Trp(1-CH2COOH)]NYY(Carboxymethyl)I[hArg]QR[Phe(3-COOH)][NMeY]C[PEG4]-NH2; thioether N-15) | 0.0752 | 12.78 | 0.018
CC[C@H](C)[C@@H]1NC(=O)[C@H](Cc2ccc(OCC(=O)O)cc2)NC(=O)[C@H](Cc2ccc(O)cc2)NC(=O)[C@H](CC(N)=O)NC(=O)[C@H](Cc2cn(CCO)c3ccccc23)NC(=O)[C@H](C(C)C)NC(=O)[C@H](Cc2cccc(Cl)c2)N(C)C(=O)[C@H](C(C)C)NC(=O)[C@H](C)NC(=O)CSC[C@@H](C(=O)NCCOCCOCCOCCOCCC(N)=O)NC(=O)[C@H](Cc2ccc(O)cc2)N(C)C(=O)[C@H](Cc2cccc(C(=O)O)c2)NC(=O)[C@H](CCCNC(=N)N)NC(=O)[C@H](CCC(N)=O)NC(=O)[C@H]([C@@H](C)CC)NC1=O [compound 73] | 0.00478 | 7.54 | 0.00185
CC[C@H](C)[C@@H]1NC(=O)[C@H](Cc2ccc(OCC(=O)O)cc2)NC(=O)[C@H](Cc2ccc(O)cc2)NC(=O)[C@H](CC(=O)NC)NC(=O)[C@H](Cc2c[nH]c3ccccc23)NC(=O)[C@H](C(C)C)NC(=O)[C@H](Cc2cccc(Cl)c2)N(C)C(=O)[C@H](C(C)C)NC(=O)[C@H](C)NC(=O)CSC[C@@H](C(=O)NCCOCCOCCOCCOCCC(N)=O)NC(=O)[C@H](Cc2ccc(O)cc2)N(C)C(=O)[C@H](Cc2cccc(C(=O)O)c2)NC(=O)[C@H](CCCNC(=N)N)NC(=O)[C@H](CCC(N)=O)NC(=O)[C@H]([C@@H](C)CC)NC1=O [compound 74] ({CH2CO}-AV[NMePhe(3-Cl)]VWD(NHMe)YY(Carboxymethyl)IIQR[Phe(3-COOH)][NMeY]C[PEG4]-NH2; thioether N-15) | 0.0762 | 3.53 | 0.0453
CCC(CC)[C@@H]1NC(=O)[C@H](Cc2ccc(OCC(=O)O)cc2)NC(=O)[C@H](Cc2ccc(N)nc2)NC(=O)[C@H](CC(N)=O)NC(=O)[C@H](Cc2cn(CC(=O)O)c3ccccc23)NC(=O)[C@H](C(C)C)NC(=O)[C@H](Cc2cccc(Cl)c2)N(C)C(=O)[C@H](C(C)C)NC(=O)[C@H](C)NC(=O)CSC[C@@H](C(=O)NCCOCCOCCOCCOCCC(N)=O)NC(=O)[C@H](Cc2ccc(C(=O)O)cc2)N(C)C(=O)[C@H](Cc2cccc(C(=O)O)c2)NC(=O)[C@H](CCCCN2CCOCC2)NC(=O)[C@H](CCCCN2CCOCC2)NC(=O)[C@H]([C@@H](C)CC)NC1=O [compound 86] ({CH2CO}-AV[NMePhe(3-Cl)]V[Trp(1-CH2COOH)]N[3Pal(6-NH2)]Y(Carboxymethyl)[Nva(3-Et)]I[Nle(6-morpholino)][Nle(6-morpholino)][Phe(3-COOH)][NMePhe(4-COOH)]C[PEG4]-NH2; thioether N-15) | – | 28.16 | –
CCC(CC)[C@@H]1NC(=O)[C@H](Cc2ccc(OC)nc2)NC(=O)[C@H](Cc2ccc(O)cc2)NC(=O)[C@H](CC(N)=O)NC(=O)[C@H](Cc2cn(CC(=O)O)c3ccccc23)NC(=O)[C@H](C(C)C)NC(=O)[C@H](Cc2cccc(Cl)c2)N(C)C(=O)[C@H](C(C)C)NC(=O)[C@H](C)NC(=O)CSC[C@@H](C(=O)NCCOCCOCCOCCOCCC(N)=O)NC(=O)[C@H](Cc2ccc(O)cc2)N(C)C(=O)[C@H](Cc2cccc(C(=O)O)c2)NC(=O)[C@H](CCCNC(=N)N)NC(=O)[C@H](CCC(N)=O)NC(=O)[C@H]([C@@H](C)CC)NC1=O [compound 90] ({CH2CO}-AV[NMePhe(3-Cl)]V[Trp(1-CH2COOH)]NY[3Pal(6-OMe)][Nva(3-Et)]IQR[Phe(3-COOH)][NMeY]C[PEG4]-NH2; thioether N-15) | – | 8.01 | –
CCC(CC)[C@@H]1NC(=O)[C@H](Cc2ccc(OCC(=O)O)cc2)NC(=O)[C@H](Cc2ccc(O)cc2)NC(=O)[C@H](CC(N)=O)NC(=O)[C@H](Cc2cn(CC(=O)O)c3ccccc23)NC(=O)[C@H](C(C)C)NC(=O)[C@H](Cc2cccc(Cl)c2)N(C)C(=O)[C@H](C(C)C)NC(=O)[C@H](C)NC(=O)CSC[C@@H](C(=O)NCCOCCOCCOCCOCCC(N)=O)NC(=O)[C@H](Cc2ccc(OC)cc2)N(C)C(=O)[C@H](Cc2cccc(C(=O)O)c2)NC(=O)[C@H](CCCNC(=N)N)NC(=O)[C@H](CCC(N)=O)NC(=O)[C@H]([C@@H](C)CC)NC1=O [compound 93] ({CH2CO}-AV[NMePhe(3-Cl)]V[Trp(1-CH2COOH)]NYY(Carboxymethyl)[Nva(3-Et)]IQR[Phe(3-COOH)][NMeY](Me)C[PEG4]-NH2; thioether N-15) | – | 7.99 | –

Other lines, results leading:

Kd [1] [µM] | dependency koff pH6.0/7.4 [2] | Kd [3] [µM] | Compound
0.0424 | 20.00 | 0.00685 | CC[C@H](C)[C@@H]1NC(=O)[C@H](Cc2ccc(OCC(=O)O)cc2)NC(=O)[C@H](Cc2ccc(N)nc2)NC(=O)[C@H](CC(N)=O)NC(=O)[C@H](Cc2c[nH]c3ccccc23)NC(=O)[C@H](C(C)C)NC(=O)[C@H](Cc2cccc(Cl)c2)N(C)C(=O)[C@H](C(C)C)NC(=O)[C@H](C)NC(=O)CSC[C@@H](C(=O)NCCOCCOCCOCCOCCC(N)=O)NC(=O)[C@H](Cc2ccc(O)cc2)N(C)C(=O)[C@H](Cc2cccc(C(=O)O)c2)NC(=O)[C@H](CCCNC(=N)N)NC(=O)[C@H](CCC(=O)NCCOCCOCCOCCOC)NC(=O)[C@H]([C@@H](C)CC)NC1=O [compound 70] ({CH2CO}-AV[NMePhe(3-Cl)]VWN[3Pal(6-NH2)]Y(Carboxymethyl)IIE(NH(CH2CH2O)4Me)R[Phe(3-COOH)][NMeY]C[PEG4]-NH2; thioether N-15)
– | 5.72 | 0.00334 | CC[C@H](C)[C@@H]1NC(=O)[C@H](Cc2ccc(OCC(=O)O)cc2)NC(=O)[C@H](Cc2ccc(O)cc2)NC(=O)[C@H](CC(N)=O)NC(=O)[C@H](Cc2c[nH]c3ccccc23)NC(=O)[C@H](C(C)C)NC(=O)[C@H](Cc2cccc(Cl)c2)N(C)C(=O)[C@H](C(C)C)NC(=O)[C@H](C)NC(=O)CSC[C@@H](C(=O)NCCOCCOCCOCCOCCC(N)=O)NC(=O)[C@H](Cc2ccc(O)cc2)N(C)C(=O)[C@H](Cc2cccc(C(=O)O)c2)NC(=O)[C@H](CCCNC(=N)N)NC(=O)[C@H](CCC(N)=O)NC(=O)[C@H]([C@@H](C)CC)NC1=O [compound 72] ({CH2CO}-AV[NMePhe(3-Cl)]VWNYY(Carboxymethyl)IIQR[Phe(3-COOH)][NMeY]C[PEG4]-NH2; thioether N-15)
– | 8.08 | – | CCC(CC)[C@@H]1NC(=O)[C@H](Cc2ccc(OCC(=O)O)cc2)NC(=O)[C@H](Cc2ccc(O)c(C)c2)NC(=O)[C@H](CC(N)=O)NC(=O)[C@H](Cc2cn(CC(=O)O)c3ccccc23)NC(=O)[C@H](C(C)C)NC(=O)[C@H](Cc2cccc(Cl)c2)N(C)C(=O)[C@H](C(C)C)NC(=O)[C@H](C)NC(=O)CSC[C@@H](C(=O)NCCOCCOCCOCCOCCC(N)=O)NC(=O)[C@H](Cc2ccc(O)cc2)N(C)C(=O)[C@H](Cc2cccc(C(=O)O)c2)NC(=O)[C@H](CCCNC(=N)N)NC(=O)[C@H](CCC(N)=O)NC(=O)[C@H]([C@@H](C)CC)NC1=O [compound 89] ({CH2CO}-AV[NMePhe(3-Cl)]V[Trp(1-CH2COOH)]N[Tyr(3-Me)]Y(Carboxymethyl)[Nva(3-Et)]IQR[Phe(3-COOH)][NMeY]C[PEG4]-NH2; thioether N-15)
– | 9.32 | – | CCC(CC)[C@@H]1NC(=O)[C@H](Cc2cnc3ccccn23)NC(=O)[C@H](Cc2ccc(O)cc2)NC(=O)[C@H](CC(N)=O)NC(=O)[C@H](Cc2cn(CC(=O)O)c3ccccc23)NC(=O)[C@H](C(C)C)NC(=O)[C@H](Cc2cccc(Cl)c2)N(C)C(=O)[C@H](C(C)C)NC(=O)[C@H](C)NC(=O)CSC[C@@H](C(=O)NCCOCCOCCOCCOCCC(N)=O)NC(=O)[C@H](Cc2ccc(O)cc2)N(C)C(=O)[C@H](Cc2cccc(C(=O)O)c2)NC(=O)[C@H](CCCNC(=N)N)NC(=O)[C@H](CCC(N)=O)NC(=O)[C@H]([C@@H](C)CC)NC1=O [compound 91] ({CH2CO}-AV[NMePhe(3-Cl)]V[Trp(1-CH2COOH)]NY[Ala(imidazo(1,2-a)pyr3yl)][Nva(3-Et)]IQR[Phe(3-COOH)][NMeY]C[PEG4]-NH2; thioether N-15)

Reference: patent EP4667483A1, “HUMAN TRANSFERRIN RECEPTOR-BINDING PEPTIDE” (JCR Pharmaceuticals Co., Ltd., priority 2023, dated 2024)
